Like-named read-outs stand apart in the source and are kept apart here.
Columns and labels:
[1] = system: SARS-CoV-2 isolate USA-WA1/2020; assay: microbe, parasite or virus in culture; format: cell-based; conditions: for EC50: read-out: SARS-CoV-2 EC50; for inhibition at 2.1 µM: Conc. 2.1 µM (0.4 × CC50)
p97 = molecular target: T1, p97 (Homo sapiens, UniProt P55072); assay: p97 biochemical assay (ATPase activity, PNP/MesG coupled); conditions: 0.2 mM ATP, 5 min preincubation; for inhibition at 0.1 µM: read-out: p97 Inhib. (%) at 0.10 µM, compound 0.10 µM; for inhibition at 1 µM: read-out: p97 Inhib. (%) at 1.0 µM, compound 1.0 µM; for p97 Inhib. (%) at 0.10 µM: compound 0.10 µM
T1 construct: made in house

[2] = Cell viability assay (MTS) in non-infected cells; conditions: human
A549/ACE2/TMPRSS2 cells = assay: Cell viability assay (MTS) in non-infected cells
[3] = tested at 0.4 × CC50, or at 50 µM if CC50 higher than 100 µM, A549/ACE2/TMPRSS2
[4] = Severe acute respiratory syndrome coronavirus 2, A549-ACE2, 48 h
[5] = Severe acute respiratory syndrome coronavirus 2, A549-ACE2, 48 h, read-out: SARS-CoV-2 Inhib. (%)
[6] = Severe acute respiratory syndrome coronavirus 2, Conc. 50 µM, A549/ACE2/TMPRSS2, MOI 0.01, 48 h, mean ± standard error, read-out: SARS-CoV-2 Inhib. (%)
[7] = Severe acute respiratory syndrome coronavirus 2, A549/ACE2/TMPRSS2, MOI 0.01, 48 h, mean ± standard error, read-out: SARS-CoV-2 Inhib. (%)

T1 sequence (P55072 whole entry): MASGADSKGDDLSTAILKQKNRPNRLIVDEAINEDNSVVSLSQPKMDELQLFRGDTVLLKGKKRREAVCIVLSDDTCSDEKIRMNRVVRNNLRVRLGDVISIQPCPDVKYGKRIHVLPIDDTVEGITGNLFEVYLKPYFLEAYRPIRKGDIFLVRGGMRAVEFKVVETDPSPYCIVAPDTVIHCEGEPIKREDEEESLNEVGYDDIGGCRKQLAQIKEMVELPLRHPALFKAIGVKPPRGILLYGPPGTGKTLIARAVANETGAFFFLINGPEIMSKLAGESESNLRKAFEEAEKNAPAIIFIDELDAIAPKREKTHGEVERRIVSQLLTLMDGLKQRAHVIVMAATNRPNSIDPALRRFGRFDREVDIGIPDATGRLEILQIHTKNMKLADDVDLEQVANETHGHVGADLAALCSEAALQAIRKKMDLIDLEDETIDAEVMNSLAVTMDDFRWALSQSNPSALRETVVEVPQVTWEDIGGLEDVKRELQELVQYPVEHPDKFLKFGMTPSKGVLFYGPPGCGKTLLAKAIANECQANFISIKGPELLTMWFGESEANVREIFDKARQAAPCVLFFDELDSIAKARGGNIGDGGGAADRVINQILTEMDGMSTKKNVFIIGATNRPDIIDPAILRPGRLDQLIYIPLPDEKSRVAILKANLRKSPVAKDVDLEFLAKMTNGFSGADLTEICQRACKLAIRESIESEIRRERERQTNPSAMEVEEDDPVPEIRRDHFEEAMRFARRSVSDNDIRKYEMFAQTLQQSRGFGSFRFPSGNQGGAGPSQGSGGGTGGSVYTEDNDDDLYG

SMILES	anti-SARS-CoV-2 activity (in words) [1, 3]	inhibition at 0.1 µM (p97) [%]	inhibition at 1 µM (p97) [%]	CC50 at 48 h [2] [µM]	also measured
CC#CC(=O)Nc1cccc2c1cc(C)n2-c1nc2c(c(NCc3ccccc3)n1)CCCC2 [Compound 6a, reference compound]	minimal inhibition	57	97	–	inhibition at 0.22 µM ([1]; Severe acute respiratory syndrome coronavirus 2, Conc. 0.22 µM (0.4 × CC50), A549/ACE2/TMPRSS2, MOI 0.01, 48 h, mean ± standard error, read-out: SARS-CoV-2 Inhib. (%)): 6 ± 3%
CCC(CC)COC(=O)[C@H](C)N[P@](=O)(OC[C@H]1O[C@@](C#N)(c2ccc3c(N)ncnn23)[C@H](O)[C@@H]1O)Oc1ccccc1 [remdesivir, reference compound]	–	–	–	> 10	EC50 [1, 4]: 0.044 µM; inhibition at 2 µM [1, 5]: 100%
CC#CC(=O)Nc1cccc2c1cc(C)n2-c1nc2c(c(NCc3ccccc3)n1)COCC2 [Compound 6b, reference compound]	minimal inhibition	38	95	–	inhibition at 0.46 µM ([1]; Severe acute respiratory syndrome coronavirus 2, Conc. 0.46 µM (0.4 × CC50), A549/ACE2/TMPRSS2, MOI 0.01, 48 h, mean ± standard error, read-out: SARS-CoV-2 Inhib. (%)): 5%
CC#CC(=O)Nc1cccc2c1cc(C)n2-c1nc(NCc2ccccc2)cc(N2CCCCC2)n1 [Compound 9a, N-(1-(4-(Benzylamino)-6-(piperidin-1-yl)pyrimidin-2-yl)-2-methyl-1H-indol-4-yl)but-2-ynamide]	excellent antiviral activity	> 90	100	76	EC50 [1, 4]: 6.7 ± 0.8 µM; inhibition at 30 µM [1, 5]: 98%; p97 Inhib. (%) at 0.10 µM (p97): 94%
C=CC(=O)Nc1cccc2c1cc(C)n2-c1nc(NCc2ccccc2)cc(N2CCCCC2)n1 [Compound 9b, N-(1-(4-(Benzylamino)-6-(piperidin-1-yl)pyrimidin-2-yl)-2-methyl-1H-indol-4-yl)acrylamide]	markedly reduced	64	91	–	inhibition at 50 µM [1, 6]: 28 ± 3%
C=CS(=O)(=O)Nc1cccc2c1cc(C)n2-c1nc(NCc2ccccc2)cc(N2CCCCC2)n1 [Compound 9c, N-(1-(4-(Benzylamino)-6-(piperidin-1-yl)pyrimidin-2-yl)-2-methyl-1H-indol-4-yl)ethenesulfonamide]	marginal inhibition	73	95	15	inhibition at 5.9 µM [1, 5]: 0%
CC#CC(=O)Nc1cccc2c1cc(C)n2-c1nc(NCc2ccccc2)cc(N2CCOCC2)n1 [Compound 8a, N-(1-(4-(Benzylamino)-6-morpholinopyrimidin-2-yl)-2-methyl-1H-indol-4-yl)but-2-ynamide]	–	~90	97	2.4	inhibition at 0.96 µM [1, 5]: 3 ± 5%
C=CS(=O)(=O)Nc1cccc2c1cc(C)n2-c1nc(NCc2ccccc2)cc(C2CCCCC2)n1 [Compound 10c, N-(1-(4-(Benzylamino)-6-cyclohexylpyrimidin-2-yl)-2-methyl-1H-indol-4-yl)ethenesulfonamide]	marginal inhibition	68	95	12	inhibition at 4.8 µM ([1]; Severe acute respiratory syndrome coronavirus 2, Conc. 4.8 µM (0.4 × CC50), A549/ACE2/TMPRSS2, MOI 0.01, 48 h, mean ± standard error, read-out: SARS-CoV-2 Inhib. (%)): 7 ± 3%
Cc1cc2c(C(N)=O)cccc2n1-c1nc2c(c(NCc3ccccc3)n1)COCC2 [CB-5083, reference compound]	–	–	–	0.95	CC50 (A549/ACE2/TMPRSS2 cells; non-infected A549/ACE2/TMPRSS2 cells, MTS, 48 h): highly toxic; anti-SARS-CoV-2 activity (in words) [1]: minimal inhibition; inhibition at 0.38 µM [1, 5]: 6 ± 4%
CC#CC(=O)Nc1cccc2c1cc(C)n2-c1nc(NCc2ccccc2)cc(C2CCCCC2)n1 [Compound 10a, N-(1-(4-(Benzylamino)-6-cyclohexylpyrimidin-2-yl)-2-methyl-1H-indol-4-yl)but-2-ynamide]	excellent antiviral activity	~90	100	> 100	EC50 [1, 4]: 6.8 ± 0.6 µM; inhibition at 50 µM [1, 5]: 96 ± 1%
C=CC(=O)Nc1cccc2c1cc(C)n2-c1nc(NCc2ccccc2)cc(C2CCCCC2)n1 [Compound 10b, N-(1-(4-(Benzylamino)-6-cyclohexylpyrimidin-2-yl)-2-methyl-1H-indol-4-yl)acrylamide]	markedly reduced	70	96	> 100	inhibition at 50 µM [1, 6]: 30 ± 9%
C=CC(=O)Nc1cccc2c1cc(C)n2-c1nc(NCc2ccccc2)cc(N2CCOCC2)n1 [Compound 8b, N-(1-(4-(Benzylamino)-6-morpholinopyrimidin-2-yl)-2-methyl-1H-indol-4-yl)acrylamide]	–	77	96	5.2	inhibition at 2.1 µM [1, 7]: 5 ± 8%
C=CS(=O)(=O)Nc1cccc2c1cc(C)n2-c1nc(NCc2ccccc2)cc(N2CCOCC2)n1 [Compound 8c, N-(1-(4-(Benzylamino)-6-morpholinopyrimidin-2-yl)-2-methyl-1H-indol-4-yl)ethenesulfonamide]	–	65	89	5.2	inhibition at 2.1 µM [1, 7]: 8 ± 3%
Cc1cc2c(C(N)=O)cccc2n1-c1nc(NCc2ccccc2)cc(C2CCCCC2)n1 [Compound 12]	–	18	21	–	p97 Inhib. (%) at 1.0 µM (p97; compound 1.0 µM): minimal inhibition
Cc1cc(OCc2nnc(SC3CCCC3)n2-c2cccnc2)ccc1-c1ccc(S(C)(=O)=O)cc1 [NMS-873, reference compound]	minimal inhibition	5	84	4.1	fold less toxic than CB-5083 (A549/ACE2/TMPRSS2 cells; A549/ACE2/TMPRSS2 cells, relative to CB-5083): approximately 4 fold; inhibition at 1.6 µM ([1]; Severe acute respiratory syndrome coronavirus 2, Conc. 1.6 µM (0.4 × CC50), A549/ACE2/TMPRSS2, MOI 0.01, 48 h, mean ± standard error, read-out: SARS-CoV-2 Inhib. (%)): 0%; p97 Inhib. (%) at 0.10 µM (p97): poor inhibition

Source: PMC11768289 (Pharmaceuticals, 2025)
